From a melting point compilation (Tetko et al.; mined from patent text by program, amines drawn as free bases though some values may be those of a salt)

Row | SMILES | melting point [°C]
1 | CN(C)[C@@H]1Cc2c(O)cccc2C[C@H]1O (relative stereo) | 179 to 183
2 | c1ccc2c(c1)[nH]c1nc(N3CCCC3)nc(N3CCCC3)c12 | 209 to 211
3 | O=C(O)c1cccc(-n2nnnc2S)c1 | 181 to 182
4 | CS(=O)(=O)Nc1ccccc1OC1CCCCC1 | 113 to 115
5 | Fc1ccc(Nc2c3ccccc3nc3ccccc23)cc1 | 184 to 196
6 | CC(C)(C)c1nc(C=NO)ncc1O | 205 to 220
7 | Fc1ccc(Cn2c(NC3CCN(CCNc4ncc[nH]4)CC3)nc3ccccc32)cc1 | 226
8 | COC(=O)c1ccc(-n2cccn2)cc1 | 107 to 109
9 | CCN(CC)Cc1nnc(-c2ncn3c2CN(C)C(=O)c2ccccc2-3)o1 | 235 to 238
10 | COc1ccc(N2CCN(CCC3OCCc4c(C(N)=O)cccc43)CC2)cc1 (configuration not stated) | 185 to 186
11 | COC(=N)Nc1nc(OC)cc(OC)n1 | 91 to 95
12 | C(=C\c1nc(COc2ccc(CCCn3cnc(-c4ccccc4)c3-c3ccccc3)cc2)co1)/c1ccccc1 | 137 to 138
13 | O=C(/C=C/C=C/c1cccc2ccccc12)NCCCCCC(=O)NO | 143 to 145
14 | N#CCSC(=O)c1ccco1 | 76 to 78
15 | CC(=Cc1ccc(C(=O)O)cc1)c1ccc2c(c1)SCCC2(C)C | 255 to 257
16 | CSc1c(C(=O)NN=Cc2ccc(Cl)cc2)[nH]c2ccccc12 | 232 to 235
17 | CC1(C)CCCC(C)(C)N1Cc1ccc2cc(NC(=O)c3ccc(-c4ccccc4)cc3)ccc2n1 | 200 to 201

Row | SMILES | melting point [°C]
18 | CCCCCCCOC(=O)C(=C1NCCCS1)[N+](=O)[O-] | 59 to 60
19 | CC1(C)Oc2cc(Br)c(Br)cc2O1 | 93 to 94
20 | COc1ccc2cc(C=O)oc2c1 | 75 to 77
21 | N#CC(C#N)=C(NCCN1CCCCC1)N1CCC(CN2CCCCC2)CC1 | 78 to 80
22 | O=C(Nc1ccc(C(=O)N2C[C@@H]3CCCN3C(=S)c3ccccc32)cc1)c1ccccc1-c1ccccc1 | 234 to 236
23 | CC1(C(O)(Cc2ccccc2Cl)Cn2cncn2)CCCC1 (configuration not stated) | 110
24 | COc1cc([N+](=O)[O-])c2nccc(C)c2c1OCCCCCCCCCc1ccccc1 | 56 to 56.5
25 | Cc1cc(OC/C=C(/c2ccc(Cl)cc2)c2ccc(C#CCN3CCC(CO)CC3)cc2)ccc1OCC(=O)O | 94 to 104
26 | C[C@H]1NC(C)(C)CO[C@]1(O)c1cccc(Cl)c1 | 128 to 131
27 | CCCCCCCCCCCCSC(=S)SC(C)(C#N)CCC(=O)O (configuration not stated) | 58 to 59
28 | CCCCOCCOc1ccc(-c2ccc3c(c2)C=C(C(=O)Nc2ccc(CS(=O)c4nncn4C)cc2)CCN3CC(C)C)cc1 (configuration not stated) | 87 to 89
29 | N#Cc1ccc(-c2ccc(C#N)c(N)c2)cc1N | 243
30 | Clc1ccc(Nc2ccc(Br)cn2)cc1 | 112 to 116
31 | CC(CS)C(=O)Nc1cncc(C(=O)O)c1 (configuration not stated) | 160 to 165
32 | Cc1nn(-c2ccc(F)cc2)cc1C(=O)N(CC(=O)O)c1ccc(N2CCC(O)CC2)c(C#N)c1 | 124 to 125
33 | COc1cc2c(cc1OC)C1CC(=O)C3CCCC3N1CC2 (configuration not stated) | 105 to 114

The remaining lines, values ahead:

Row | melting point [°C] | SMILES
34 | 84 to 85 | CCOC(=O)C1CCN(c2nc(COc3ccc(CO)cc3OC)c(C)s2)CC1
35 | 166 to 168 | CC(=O)N(C(=O)N1CC(c2ccc(Cl)cc2)C(c2ccc(Cl)cc2)=N1)c1ccc(C(F)(F)F)cc1 (configuration not stated)
36 | 302 to 303 | CC(C)(C)Nc1c(NCc2ccc(Cl)c(Cl)c2)c(=O)c1=O
37 | 118 to 120 | CCC1C(=O)Nc2ccc(Br)cc21 (configuration not stated)
38 | 194 to 196 | Cc1ccc(S(=O)(=O)OCCc2cc3c4ccccc4[nH]c(=O)n3n2)cc1
39 | > 250 | CCn1cc2c(n1)c(=O)[nH]c1ccccc12
40 | 173 to 175 | CCCCc1nc(Cl)c(CO)n1Cc1ccc(-c2nc3ccccn3c2C(=O)O)cc1
41 | 148 to 149 | CCCCC(=O)N(Cc1ccc(-c2ccccc2-c2nc(=O)s[nH]2)cc1)c1sccc1C(=O)O
42 | 196 to 198 | CCOC(=O)C1(n2cc(Br)cc2C(=O)C(Cl)(Cl)Cl)CC(=O)NC1=O (configuration not stated)
43 | 68 to 70 | CC(=O)Nc1cccc(C=O)c1
44 | 132 to 133 | COc1ccnc(CCc2nc3cc(-c4cccs4)cnc3[nH]2)c1
45 | 131 to 134 | C=C(C)COc1ccc2c(=O)c(C)c(-c3ccccc3)oc2c1C(=O)C=Cc1cccc(OC)c1
46 | 148 to 150 | CCn1ncnc1COc1nc2c(cc1C(C)(C)C)nnn2-c1cc(F)ccc1F
47 | 188 to 190 | COc1cc(-c2nc3ccc(OC(F)(F)F)cc3[nH]2)ccc1O
48 | 105 to 106 | CCC(CC(=O)NC(=O)OC(C)(C)C)Nc1ccccc1 (configuration not stated)
49 | 168 to 170 | CC(C)(C)C(=O)Nc1c(F)cc(F)cc1Oc1ccc(C(C)(C)C(=O)O)cc1
50 | 154 to 156 | C=C(C)COc1ccc(NC(C)=O)c(C)c1C
51 | 173 to 174 | CCn1c(C(C)NS(=O)(=O)c2ccc(Cl)c(Cl)c2)cnc1Sc1ccc(C)cc1 (configuration not stated)
52 | 251 to 256 | CCn1ncc2c(O)c(CCc3ccccc3)c(C)nc21
53 | 117 to 118 | NCc1cccc(OCc2nc(-c3ccc(Cl)cc3)cs2)c1

Row | melting point [°C] | SMILES
54 | 303 to 304 | O=C1c2cccc3c4c(cc(c23)C(=O)N1O)OCO4
55 | 96 to 98 | CSCc1cnc2c([N+](=O)[O-])cccc2c1Cl
56 | 146 to 148 | Cc1ccc(C(=O)CBr)cc1S(N)(=O)=O
57 | 136 to 137 | Clc1cc(Oc2ccc3ncccc3c2)ncn1
58 | 136 to 140 | COc1cc(Br)ccc1C(C)CC(=O)C(=O)Nc1ccc2c(c1)COC2=O (configuration not stated)
59 | 208 to 209 | COC(=O)c1cc(N2CCCC2)c(Oc2cc(C)cc(C)c2)c(S(N)(=O)=O)c1
60 | 112 | COC(=O)CCCc1cc2nc(Cl)ccc2n1S(=O)(=O)c1cccc2nsnc12
61 | 253 | CCc1ccc2c(c1)C=Cc1cc(C)ccc1C2c1cn(Cc2ccc(C(=O)O)o2)c(=O)[nH]c1=O (configuration not stated)
62 | 198 to 201 | Cc1cc(F)cc2c(=O)c(C(=O)O)cn(CC(F)(F)F)c12
63 | 137 to 139 | NC(=O)c1ccc(C(Cc2ccc(F)cc2)C(=O)Nc2nc3ccccc3o2)cc1 (configuration not stated)
64 | 98 to 101 | CCOC(=O)COc1cc(-n2c(=O)cc(C(F)(F)F)n(C)c2=O)c(F)cc1Cl
65 | 272 to 274 | O=C(O)c1ccc(NC(=O)C(c2ccc(Cl)cc2)c2ccc(Cl)cc2)cc1
66 | 125 | CC(C)(c1cc(F)ccc1O)c1cc(Cl)ccc1O
67 | 197 to 199 | O=C(O)COc1ccc(C2=CC(=O)CC(c3ccccc3)C2)c(Cl)c1Cl (configuration not stated)
68 | 131 to 132 | CC(C)c1nn(-c2ccc(C(F)(F)F)cn2)cc1CCCOc1cc(CCC(=O)O)n(C)n1
69 | 135 to 137 | O=C(Cc1cccc(Oc2ccccc2)c1)Nc1cc(Cl)c(Cl)cc1[N+](=O)[O-]
70 | 98 to 100 | COC(=O)CCc1nc(C(=O)OC)ccc1OC
71 | 137 to 138 | COc1ccc(S(=O)(=O)C(c2cnc(C(=O)NCCO)cc2C)c2cc(F)ccc2F)cc1F (configuration not stated)
72 | 248 to 249 | Cc1nc(N2CCN(Cc3ccccc3)C2=O)sc1C(=O)O
